Patent publication US8329669B2, “Composition and method for treatment of tumors” (Sanofi, priority 2006, dated 2012)

Columns and labels:
Type in all cases: cell-based
[1] = tested on: HCT116 cells; experiment: JC-1 mitochondrial membrane potential assay (FACS)
Description: As Core 1 is a subunit of the mitochondrial respiratory Complex III, work was conducted to determine whether expression of Core 1 protects against mitochondrial depolarization, a critical step in mitochondrial mediated apoptosis. Changes in mitochondrial membrane potential during TRAIL treatment were studied using the JC-1 Assay Kit (Molecular Probes). JC-1 (5, 5′,6,6′,-tetrachloro-1,1′,3,3′-tetraethylbenzimidazolylcarbocyanine) is a cationic dye which has a diffuse green fluorescence in the cytoplasm. The accumulation of JC-1 in the mitochondria, which depends on intact, polarized mitochondria, results in the formation of red fluorescent aggregates. The ratio of green to red fluorescence was measured for the cells described in Example 2 above by Fluorescence-activated Cell Sorter (FACS) analysis. FACS is a method to sort cells based on specific cellular surface markers (e.g., red or green fluorescence). The above ratio is plotted as a percentage of polarized mitochondria.

[2] = tested on: HCT116 cells; experiment: Western blot for caspase activation upon TRAIL stimulation; details: full length Core 1 vs YFP expressing HCT116; 200 ng/ml TRAIL, 24 hours
Description: Cells stably expressing YFP or human full length Core 1 were treated for 24 hours with 200 ng/ml TRAIL, lysed, and western blotted with antibodies to several caspases. Caspase activation was detected by the cleavage of the full length pro-caspase to the smaller, active form. […] Thus, Core 1 expression inhibits the full activation of caspases 8, 9, and 3 upon TRAIL stimulation.

[3] = tested on: HCT116 cells; experiment: Annexin V apoptosis assay (FACS) after TRAIL treatment; details: 50 ng/ml TRAIL
Description: To further characterize the ability of Core 1 to protect against TRAIL-induced apoptosis, the pEYK vector containing the partial cDNA of UQCRC1 isolated from the screen was used to directly infect HCT116 cells. Cells expressing dominant-negative FADD (dnFADD), which inhibits the signal from the TRAIL receptors, was used as a control. Cells were treated for 48 hours with 0, 10 or 50 ng/mL of TRAIL and assayed for Annexin V, an early marker of apoptosis [FIG. 2A]. Expression of dnFADD inhibited TRAIL-induced apoptosis, with 78% of cells Annexin V negative or non-apoptotic at 50 ng/ml TRAIL.
To confirm that the protection observed from the partial Core 1 protein is indicative of its function, the full length human Core 1 protein was cloned into the pLenti-vector (containing a HA-tag) and used to infect HCT116 to produce a stable cell line expressing Core 1. A control cell line was prepared similarly to express Yellow Fluorescent Protein (YFP). To confirm the protein expression of full length Core 1, cells were homogenized to prepare a mitochondrial and cytoplasmic lysate and western blotted with antibodies to Core 1 [FIG. 2C]. The endogenous Core 1 is detected in the mitochondrial fraction of both YFP and Core 1 expressing cells. Exogenously expressed Core 1 is HA-tagged and is detected as a higher migrating band in the mitochondrial fraction, as well as the cytoplasmic fraction. […] Thus, Core 1 is expressed in these HCT116 stable cell lines. To determine if full length Core 1 also protects against TRAIL-induced apoptosis, cells were treated with TRAIL and assayed for apoptosis by FACS analysis for cells that were Annexin V positive or negative.

[4] = tested on: HCT116 cells; experiment: Cytochrome c release into the cytoplasmic fraction (ELISA); details: 100 ng/ml TRAIL, 24 hours
Description: HCT116 cells stably expressing YFP or human full length Core 1 were treated with 100 ng/ml TRAIL for 24 hours. Control cells stably expressing YFP or human full length Core 1 were not treated with TRAIL. The cells were then harvested. Media containing floating cells was first removed to new tubes. The remaining adherent cells were detached using a cell scraper in ice-cold PBS and added to the media containing floating cells. The cells were pelleted by centrifuging at 1000×g for 10 minutes at 4° C. and resuspended in an iso-osmotic buffer (0.3M sucrose, 10 mM Tris pH 7.5, 1 mM EDTA, EDTA-free protease tablet). After a five minute incubation on ice, the cells were lysed using dounce homogenizers until about 90% of the plasma membranes were lysed. This was done to isolate the cytoplasmic fraction. The extent of cell lysis was monitored by mixing 10 μl of lysate with trypan blue and viewed on a hemocytometer. […] The concentration of lysates was determined using either the BioRad DC protein assay (BioRad) or the BCA method (Pierce, Rockford, Ill.). To quantitatively detect cytochrome c levels, lysates were assayed for cytochrome c using a Function ELISA cytochrome c kit (Active Motif, Carlsbad, Calif.) [FIG. 3B]. In untreated cells, low baseline levels of cytochrome c were detected in the cytoplasm.

[5] = tested on: HCT116 cells; experiment: Cell-Titer Blue viability of cells expressing YFP or full length Core 1 treated with apoptosis inducers
Description: To determine whether Core 1 protected against apoptosis induced by TRAIL or through other pathways, cells were treated with several different apoptosis inducers and assayed for cell viability. Fas Ligand (FasL), also a TNFα family member which signals through Death Receptors, uses the same adaptor protein FADD to induce caspase activation and apoptosis. Cells stably expressing either yellow florescent protein (YFP) or human full length Core 1 were treated with 100 ng/ml of TRAIL or 16 ng/ml of FasL for 24 hours. Cell viability was assayed using the Cell-Titer Blue assay, where conversion of the indicator dye resazurin is used to measure the metabolic capacity of cells, an indicator of cell viability. […] Cells were then treated with two compounds which induce apoptosis through non-death receptor pathways. Camptothecin inhibits DNA topoisomerase 1, ultimately leading to DNA damage and death, while Taxotere is an inhibitor of microtubule depolymerization, which prevents cell division and leads to mitotic death.

Molecule: TRAIL: recombinant human TRAIL (BioMol), member of the TNF superfamily that induces apoptosis
- polarized mitochondria remaining ([1]; HCT116 expressing GFP, 50 ng/ml TRAIL): 7%
- mitochondrial depolarization ([1]; HCT116 expressing dnFADD, all concentrations of TRAIL): completely protected
- polarized mitochondria ([1]; HCT116 expressing partial Core 1, 50 ng/ml TRAIL): 38%
- protection from mitochondrial depolarization over GFP ([1]; partial Core 1 vs GFP expressing cells, 50 ng/ml TRAIL): 5 fold
- caspase 8 activation [2]: less active caspase 8
- caspase 9 and caspase 3 activation [2]: reduced activation
- cells Annexin V negative ([3]; HCT116 expressing GFP, 48 hours): 2%
- cells Annexin V negative or non-apoptotic ([3]; HCT116 expressing dnFADD, 48 hours): 78%
- cells Annexin V negative ([3]; HCT116 expressing partial Core 1, 48 hours): 14.5%
- protection against TRAIL-induced apoptosis ([3]; full length Core 1 vs YFP expressing cells): 2.5 fold
- increase in protection from TRAIL induced apoptosis ([3]; partial Core 1 vs GFP expressing cells): 7 fold
- increase in cytochrome c released into the cytoplasmic fraction ([4]; HCT116 expressing YFP, vs untreated): 10 fold
- cytochrome c released, relative to YFP cells ([4]; HCT116 expressing full length Core 1): only one-half as much

Molecule: CC[C@@]1(O)C(=O)OCc2c1cc1n(c2=O)Cc2cc3ccccc3nc2-1 [Camptothecin]
- difference in viability between cells expressing YFP or full length Core 1 ([5]; 200 nM Camptothecin in dimethyl sulfoxide): No difference in viability

Molecule: CC(=O)O[C@@]12CO[C@@H]1C[C@H](O)[C@@]1(C)C(=O)[C@H](O)C3=C(C)[C@@H](OC(=O)[C@H](O)[C@@H](NC(=O)OC(C)(C)C)c4ccccc4)C[C@@](O)([C@@H](OC(=O)c4ccccc4)[C@H]21)C3(C)C [Taxotere]
- difference in viability between cells expressing YFP or full length Core 1 ([5]; 10 nM Taxotere in dimethyl sulfoxide): No difference in viability

B1: FasL: Fas Ligand, TNFα family member which signals through Death Receptors (protein, UniProt P48023 130-281, looked up)
Tumor necrosis factor ligand …: QIGHPSPPPEKKELRKVAHLTGKSNSRSMPLEWEDTYGIVLLSGVKYKKGGLVINETGLYFVYSKVYFRGQSCNNLPLSHKVYMRNSKYPQDLVMMEGKMMSYCTTGQMWARSSYLGAVFNLTSADHLYVNVSELSLVNFEESQTFFGLYKL
- protection from FasL induced apoptosis by Core 1 expression ([5]; Core 1 vs YFP expressing cells, 16 ng/ml FasL, 24 hours): about a three-fold protection
